Experimental data taken from US20230117034A1, “PYRAZOLOTRIAZINES” (Bayer Aktiengesellschaft, priority 2019, published 2023).

Key:
[1] = system: MDA-MB-231, human breast cancer cells; experiment: Proliferation assay MDA-MB-231 (crystal violet, 4 days); format: cell-based; details: Homo sapiens, MDA-MB-231, 96 h, MDA-MB-231 cells, median, read-out: Prolif-MDA MB-231, IC50-[mol/l] (median)
How it was run: (§1)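 IC50 from a 4-parameter fit of crystal violet absorbance (595 nm), scaled between a day-0 plate (0%) and untreated wells (100%). Cells grown in 10% FCS medium were exposed to test substances at 0.01-10 µmol/L for 4 days, 0.1% DMSO final.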

[2] = target: T1, CYCLIN K (nuclear staining in CAL-120 cells) (Homo sapiens, UniProt O75909); experiment: CYCLIN K nuclear protein level: immunofluorescence high content analysis (CAL-120); format: cell-based; details: 24 h, 50% reduction of nuclear CCNK staining intensity, median, read-out: CYCLIN K degradation IF, DC50-[mol/l] (median)
T1 construct: endogenous in cells; host or cells: CAL-120 human breast cancer cells (DSMZ ACC 459)
How it was run: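 Readout is automated confocal image analysis of nuclear cyclin K immunofluorescence (Hoechst nuclei) after PFA fixation. Cells were CAL-120, exposed to compound dose-response 24 h at 37 °C; values are DC50 for halving nuclear CCNK signal relative to DMSO and control wells.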

[3] = system: CAL-120, human breast adenocarcinoma cells; experiment: Proliferation assay CAL-120 (crystal violet, 4 days); format: cell-based; details: Homo sapiens, CAL-120, 96 h, CAL-120 cells, median, read-out: Prolif-CAL-120, IC50-[mol/l] (median)
How it was run: as §1

[4] = system: BRCA1 mRNA expression in MDA-MB-231 cells; experiment: qRT-PCR assay: BRCA1 mRNA expression in MDA-MB-231; format: cell-based, human; details: Homo sapiens, MDA-MB-231, Inhibition of BRCA1 mRNA expression in MDA-MB-231 cells; median; read-out: RTqPCR-MDA-MB-231, IC50, BRCA1 (median)
How it was run: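 Seed 200,000 cells/well; 24 h later add compound, continuous exposure 24 h; extract RNA, 600 ng to cDNA; RT-qPCR, normalised to GAPDH.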

T1 sequence (O75909 whole entry): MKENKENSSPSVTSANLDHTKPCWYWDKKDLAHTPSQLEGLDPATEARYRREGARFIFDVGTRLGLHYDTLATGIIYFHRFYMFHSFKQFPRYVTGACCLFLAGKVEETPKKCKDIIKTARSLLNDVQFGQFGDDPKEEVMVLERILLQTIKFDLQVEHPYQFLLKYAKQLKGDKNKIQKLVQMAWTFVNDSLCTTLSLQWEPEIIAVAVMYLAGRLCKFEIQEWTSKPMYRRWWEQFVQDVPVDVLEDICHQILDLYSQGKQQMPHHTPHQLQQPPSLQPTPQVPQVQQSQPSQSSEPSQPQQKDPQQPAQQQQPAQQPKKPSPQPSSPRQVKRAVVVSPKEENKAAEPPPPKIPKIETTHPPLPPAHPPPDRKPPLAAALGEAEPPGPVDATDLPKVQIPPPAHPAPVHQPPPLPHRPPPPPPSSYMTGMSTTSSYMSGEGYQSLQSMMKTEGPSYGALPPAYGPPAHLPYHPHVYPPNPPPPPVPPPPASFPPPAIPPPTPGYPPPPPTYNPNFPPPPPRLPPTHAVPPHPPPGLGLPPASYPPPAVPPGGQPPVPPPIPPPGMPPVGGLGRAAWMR
T1 sequence (Q9NYV4 whole entry partner): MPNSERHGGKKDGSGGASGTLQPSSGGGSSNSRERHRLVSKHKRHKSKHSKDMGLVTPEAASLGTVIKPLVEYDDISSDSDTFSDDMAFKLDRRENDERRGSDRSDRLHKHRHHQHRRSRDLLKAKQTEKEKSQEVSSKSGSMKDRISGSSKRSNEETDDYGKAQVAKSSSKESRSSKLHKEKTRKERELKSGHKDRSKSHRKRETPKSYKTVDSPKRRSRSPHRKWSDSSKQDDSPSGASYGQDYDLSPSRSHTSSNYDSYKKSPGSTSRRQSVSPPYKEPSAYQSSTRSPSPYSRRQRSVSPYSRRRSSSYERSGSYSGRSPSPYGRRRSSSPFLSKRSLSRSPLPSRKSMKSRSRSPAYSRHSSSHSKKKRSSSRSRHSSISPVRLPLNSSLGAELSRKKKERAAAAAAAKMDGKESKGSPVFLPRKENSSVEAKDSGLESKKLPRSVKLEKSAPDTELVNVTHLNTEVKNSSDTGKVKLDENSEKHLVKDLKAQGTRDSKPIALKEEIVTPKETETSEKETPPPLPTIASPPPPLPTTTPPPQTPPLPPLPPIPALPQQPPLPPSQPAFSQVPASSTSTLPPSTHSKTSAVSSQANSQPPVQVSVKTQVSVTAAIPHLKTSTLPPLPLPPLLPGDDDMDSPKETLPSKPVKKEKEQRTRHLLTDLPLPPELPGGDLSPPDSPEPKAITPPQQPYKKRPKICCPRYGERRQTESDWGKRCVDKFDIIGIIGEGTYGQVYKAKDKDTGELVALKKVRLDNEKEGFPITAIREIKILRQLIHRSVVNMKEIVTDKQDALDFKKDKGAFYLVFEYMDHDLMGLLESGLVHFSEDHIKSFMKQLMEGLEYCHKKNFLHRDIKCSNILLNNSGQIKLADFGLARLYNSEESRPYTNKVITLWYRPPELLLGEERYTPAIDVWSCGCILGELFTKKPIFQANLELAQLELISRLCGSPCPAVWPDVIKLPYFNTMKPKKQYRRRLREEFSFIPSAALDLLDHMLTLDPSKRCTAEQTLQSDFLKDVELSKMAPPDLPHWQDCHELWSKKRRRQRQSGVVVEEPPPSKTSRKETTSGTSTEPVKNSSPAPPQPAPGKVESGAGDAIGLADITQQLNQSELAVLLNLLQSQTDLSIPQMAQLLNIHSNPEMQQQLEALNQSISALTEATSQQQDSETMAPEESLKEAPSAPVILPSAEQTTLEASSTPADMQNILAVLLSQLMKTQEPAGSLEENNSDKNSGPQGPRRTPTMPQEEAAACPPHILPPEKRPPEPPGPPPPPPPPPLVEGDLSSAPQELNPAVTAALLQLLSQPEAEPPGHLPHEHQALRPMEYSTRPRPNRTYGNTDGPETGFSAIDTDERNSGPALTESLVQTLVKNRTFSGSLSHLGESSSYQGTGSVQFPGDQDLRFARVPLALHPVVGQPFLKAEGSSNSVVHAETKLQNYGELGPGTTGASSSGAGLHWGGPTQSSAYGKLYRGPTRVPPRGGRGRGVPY

IC50 [1] [nM] | DC50 [2] [nM] | IC50 [3] [nM] | IC50 [4] [nM] | SMILES
16.1 | 0.815 | 17.6 | 3.06 | Fc1cccc2[nH]c(CNc3nc(N4CCOCC4)nc4c(C5CC5)cnn34)nc12 [Example 188, 8-cyclopropyl-N-[(4-fluoro-1H-benzimidazol-2-yl)methyl]-2-(morpholin-4-yl)pyrazolo[1,5-a][1,3,5]triazin-4-amine]
10.7 | 0.318 | 4.67 | 1.98 | OC[C@@H]1CCCCN1c1nc(NCc2nc3c(F)cccc3[nH]2)n2ncc(C3CC3)c2n1 [Example 189, [(2S)-1-(8-cyclopropyl-4-{[(4-fluoro-1H-benzimidazol-2-yl)methyl]amino}pyrazolo[1,5-a][1,3,5]triazin-2-yl)piperidin-2-yl]methanol]
4.01 | 0.268 | 6.68 | 3.27 | Fc1ccc2[nH]c(CNc3nc(N4CCNCC4)nc4c(C5CC5)cnn34)nc2c1 [Example 190, 8-cyclopropyl-N-[(5-fluoro-1H-benzimidazol-2-yl)methyl]-2-(piperazin-1-yl)pyrazolo[1,5-a][1,3,5]triazin-4-amine]
9.68 | 0.187 | 1.16 | 2.18 | OC[C@@H]1CCCCN1c1nc(NCc2nc3cc(F)ccc3[nH]2)n2ncc(C3CC3)c2n1 [Example 191, [(2S)-1-(8-cyclopropyl-4-{[(5-fluoro-1H-benzimidazol-2-yl)methyl]amino}pyrazolo[1,5-a][1,3,5]triazin-2-yl)piperidin-2-yl]methanol]
4.91 | 0.589 | 3.08 | 2.05 | Cc1ccc2[nH]c(CNc3nc(N4C[C@H]5C[C@@H]4CO5)nc4c(Br)cnn34)nc2c1 [Example 192, 8-bromo-N-[(5-methyl-1H-benzimidazol-2-yl)methyl]-2-[(1R,4R)-2-oxa-5-azabicyclo[2.2.1]heptan-5-yl]pyrazolo[1,5-a][1,3,5]triazin-4-amine]
6.64 | 0.958 | 5.06 | 3.65 | Cc1ccc2[nH]c(CNc3nc(N4CCOCC4)nc4c(C5CC5)cnn34)nc2c1 [Example 193, 8-cyclopropyl-N-[(5-methyl-1H-benzimidazol-2-yl)methyl]-2-(morpholin-4-yl)pyrazolo[1,5-a][1,3,5]triazin-4-amine]
1.69 | 0.0954 | 1.16 | 0.829 | Cc1ccc2[nH]c(CNc3nc(N4C[C@@H](C)N[C@@H](C)C4)nc4c(C5CC5)cnn34)nc2c1 [Example 194, 8-cyclopropyl-2-[(3R,5S)-3,5-dimethylpiperazin-1-yl]-N-[(5-methyl-1H-benzimidazol-2-yl)methyl]pyrazolo[1,5-a][1,3,5]triazin-4-amine]
4.8 | 1.29 | 4.46 | 2.83 | Cc1ccc2[nH]c(CNc3nc(N4C[C@@H]5CCCN[C@@H]5C4)nc4c(C5CC5)cnn34)nc2c1 [Example 195, 8-cyclopropyl-N-[(5-methyl-1H-benzimidazol-2-yl)methyl]-2-[(4aS,7aS)-octahydro-6H-pyrrolo[3,4-b]pyridin-6-yl]pyrazolo[1,5-a][1,3,5]triazin-4-amine]
12.9 | 2.29 | 8.05 | 4.27 | Cc1ccc2[nH]c(CNc3nc(N4C[C@H]5C[C@@H]4CO5)nc4c(C5CC5)cnn34)nc2c1 [Example 196, 8-cyclopropyl-N-[(5-methyl-1H-benzimidazol-2-yl)methyl]-2-[(1R,4R)-2-oxa-5-azabicyclo[2.2.1]heptan-5-yl]pyrazolo[1,5-a][1,3,5]triazin-4-amine]
15.6 | 0.763 | 4.99 | 6.27 | COc1cccc2[nH]c(CNc3nc(N4CCN(C)CC4)nc4c(C5CC5)cnn34)nc12 [Example 197, 8-cyclopropyl-N-[(4-methoxy-1H-benzimidazol-2-yl)methyl]-2-(4-methylpiperazin-1-yl)pyrazolo[1,5-a][1,3,5]triazin-4-amine]
53.2 | 2.32 | 15.4 | 47.9 | Brc1cnn2c(NCc3nc4ccccc4[nH]3)nc(N3C[C@H]4CCCN[C@H]4C3)nc12 [Example 199, N-[(1H-benzimidazol-2-yl)methyl]-8-bromo-2-[(4aR, 7aR)-octahydro-6H-pyrrolo[3,4-b]pyridin-6-yl]pyrazolo[1,5-a][1,3,5]triazin-4-amine]
1.69 | 0.119 | 1.02 | 1.19 | Cc1ccc2[nH]c(CNc3nc(N4C[C@@H]5CCCN[C@@H]5C4)nc4c(Br)cnn34)nc2c1 [Example 203, 8-bromo-N-[(5-methyl-1H-benzimidazol-2-yl)methyl]-2-[(4aS, 7aS)-octahydro-6H-pyrrolo[3,4-b]pyridin-6-yl]pyrazolo[1,5-a][1,3,5]triazin-4-amine]
1.59 | 0.0967 | 0.869 | 1.13 | Cc1ccc2[nH]c(CNc3nc(N4CCNCC4)nc4c(Br)cnn34)nc2c1 [Example 204, 8-bromo-N-[(5-methyl-1H-benzimidazol-2-yl)methyl]-2-(piperazin-1-yl)pyrazolo[1,5-a][1,3,5]triazin-4-amine]
4.2 | 0.279 | 1.73 | 1.81 | COc1ccc2[nH]c(CNc3nc(N4C[C@@H](C)N[C@@H](C)C4)nc4c(Br)cnn34)nc2c1 [Example 205, 8-bromo-2-[(3R,5S)-3,5-dimethylpiperazin-1-yl]-N-[(5-methoxy-1 H-benzimidazol-2-yl)methyl]pyrazolo[1,5-a][1,3,5]triazin-4-amine]
2.26 | 0.0619 | 1.28 | 1.67 | Cc1ccc2[nH]c(CNc3nc(N4C[C@@H](C)N[C@@H](C)C4)nc4c(Br)cnn34)nc2c1 [Example 209, 8-bromo-2-[(3R,5S)-3,5-dimethylpiperazin-1-yl]-N-[(5-methyl-1H-benzimidazol-2-yl)methyl]pyrazolo[1,5-a][1,3,5]triazin-4-amine]
8.06 | 0.199 | 4.66 | 2.27 | Cc1ccc2[nH]c(CNc3nc(N4CCN(C)CC4)nc4c(C5CC5)cnn34)nc2c1 [Example 210, 8-cyclopropyl-N-[(5-methyl-1H-benzimidazol-2-yl)methyl]-2-(4-methylpiperazin-1-yl)pyrazolo[1,5-a][1,3,5]triazin-4-amine]
7.03 | 0.478 | 2.29 | 4.24 | COc1cccc2[nH]c(CNc3nc(N4CCNCC4)nc4c(C5CC5)cnn34)nc12 [Example 211, 8-cyclopropyl-N-[(4-methoxy-1H-benzimidazol-2-yl)methyl]-2-(piperazin-1-yl)pyrazolo[1,5-a][1,3,5]triazin-4-amine]
5.45 | 0.47 | 2.29 | 5.49 | COc1cccc2[nH]c(CNc3nc(N4C[C@@H](C)N[C@@H](C)C4)nc4c(C5CC5)cnn34)nc12 [Example 212, 8-cyclopropyl-2-[(3R,5S)-3,5-dimethylpiperazin-1-yl]-N-[(4-methoxy-1H-benzimidazol-2-yl)methyl]pyrazolo[1,5-a][1,3,5]triazin-4-amine]
24.8 | 1.55 | 10.7 | 15 | COc1cccc2[nH]c(CNc3nc(N4CCOCC4)nc4c(C5CC5)cnn34)nc12 [Example 213, 8-cyclopropyl-N-[(4-methoxy-1H-benzimidazol-2-yl)methyl]-2-morpholino-pyrazolo[1,5-a][1,3,5]triazin-4-amine]
17.7 | 0.347 | 6.2 | 19.3 | COc1cccc2[nH]c(CNc3nc(N4C[C@@H]5CCCN[C@@H]5C4)nc4c(C5CC5)cnn34)nc12 [Example 214, 8-cyclopropyl-N-[(4-methoxy-1H-benzimidazol-2-yl)methyl]-2-[(4aS,7aS)-octahydro-6H-pyrrolo[3,4-b]pyridin-6-yl]pyrazolo[1,5-a][1,3,5]triazin-4-amine]
129 | 6.49 | 34.3 | 131 | Brc1cnn2c(NCc3nc4ccccc4[nH]3)nc(N3CCC4(CCCN4)C3)nc12 (stereo not shown) [Example 215, N-(1H-benzimidazol-2-ylmethyl)-8-bromo-2-(1,7-diazaspiro[4.4]nonan-7-yl)pyrazolo[1,5-a][1,3,5]triazin-4-amine]
16.8 | 0.354 | 8.55 | 7.36 | CC1(C)CN(c2nc(NCc3nc4ccccc4[nH]3)n3ncc(Br)c3n2)CCN1 [Example 216, N-[(1H-benzimidazol-2-yl)methyl]-8-bromo-2-(3,3-dimethylpiperazin-1-yl)pyrazolo[1,5-a][1,3,5]triazin-4-amine]
